Experiments:
[1] = tested on: HCV replicon RNA (GenBank Accession No. AJ242654); experiment: HCV Replicon Assay (replicon RNA reduction and/or Fluc reporter signal); assay type: cell-based, Hepatitis C virus; conditions: Hepatitis C virus, 72 h, replicon-containing cells cultured with test compound for up to 3 days
Outline: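 IC50 values mostly reflect the drop in replicon RNA, though Fluc reporter signal may also be used. Compound incubated with cells carrying the bicistronic replicon for as long as 3 days; interferon served as positive control.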

| SMILES | melting point [°C] | IC50 [1] [nM] |
| --- | --- | --- |
| CC(C)(NS(=O)(=O)c1ccc(-c2c(C(N)=O)c3cc(C(F)(F)F)cnc3n2C2CCCC2)nc1)C(F)(F)F [Cpd 406, 1-cyclopentyl-5-(trifluoromethyl)-2-{5-[(1,1,1-trifluoro-2-methylpropan-2-yl)sulfamoyl]pyridin-2-yl}-1H-pyrrolo[2,3-b]pyridine-3-carboxamide] | 244 to 246 | < 500 |
| NC(=O)c1c(-c2ccc(S(=O)(=O)NC3(C(F)(F)F)CC3)cn2)n(C2CCCC2)c2ncc(C(F)(F)F)cc12 [Cpd 407, 1-cyclopentyl-5-(trifluoromethyl)-2-(5-{[1-(trifluoromethyl)cyclopropyl]sulfamoyl}pyridin-2-yl)-1H-pyrrolo[2,3-b]pyridine-3-carboxamide] | 262 to 264 | < 500 |
| NC(=O)c1c(-c2ccc(S(=O)(=O)NC3(C(F)(F)F)CC3)cc2)n(C2CCCC2)c2ncc(C(F)(F)F)cc12 [Cpd 408, 1-cyclopentyl-5-(trifluoromethyl)-2-(4-{[1-(trifluoromethyl)cyclopropyl]sulfamoyl}phenyl)-1H-pyrrolo[2,3-b]pyridine-3-carboxamide] | 277 to 279 | < 500 |
| C[C@H](NS(=O)(=O)c1ccc(-c2c(C(N)=O)c3cc(C(F)(F)F)cnc3n2C2CCCC2)nc1)C(F)(F)F [Cpd 409, 1-cyclopentyl-5-(trifluoromethyl)-2-(5-{[(2S)-1,1,1-trifluoropropan-2-yl]sulfamoyl}pyridin-2-yl)-1H-pyrrolo[2,3-b]pyridine-3-carboxamide] | 261 to 263 | < 500 |
| CCc1cnc2c(c1)c(C#N)c(-c1ccc(S(=O)(=O)N[C@@H](C)C(F)(F)F)cn1)n2-c1cnccn1 [Cpd 411, 6-[3-cyano-5-ethyl-1-(pyrazin-2-yl)-1H-pyrrolo[2,3-b]pyridin-2-yl]-N-[(2S)-1,1,1-trifluoropropan-2-yl]pyridine-3-sulfonamide] | 195 to 200 | < 500 |
| CCc1cnc2c(c1)c(C#N)c(-c1ccc(S(=O)(=O)N[C@@H](C)C(F)(F)F)cn1)n2-c1cc(F)ccn1 [Cpd 412, 6-[3-cyano-5-ethyl-1-(4-fluoropyridin-2-yl)-1H-pyrrolo[2,3-b]pyridin-2-yl]-N-[(2S)-1,1,1-trifluoropropan-2-yl]pyridine-3-sulfonamide] | 201 to 205 | < 500 |
| CCc1cnc2c(c1)c(C#N)c(-c1ccc(S(=O)(=O)N[C@@H](C)C(F)(F)F)cn1)n2-c1ccccc1 [Cpd 413, 6-(3-cyano-5-ethyl-1-phenyl-1H-pyrrolo[2,3-b]pyridin-2-yl)-N-[(2S)-1,1,1-trifluoropropan-2-yl]pyridine-3-sulfonamide] | 135 to 140 | < 500 |
| CCc1cnc2c(c1)c(C#N)c(-c1ccc(S(=O)(=O)N[C@@H](C)C(F)(F)F)cn1)n2-c1ccccn1 [Cpd 414, 6-[3-cyano-5-ethyl-1-(pyridin-2-yl)-1H-pyrrolo[2,3-b]pyridin-2-yl]-N-[(2S)-1,1,1-trifluoropropan-2-yl]pyridine-3-sulfonamide] | 190 to 195 | < 500 |
| C[C@H](NS(=O)(=O)c1ccc(-c2c(C#N)c3cc(C(F)(F)F)cnc3n2C2CCCCC2)nc1)C(F)(F)F [Cpd 415, 6-[3-cyano-1-cyclohexyl-5-(trifluoromethyl)-1H-pyrrolo[2,3-b]pyridin-2-yl]-N-[(2S)-1,1,1-trifluoropropan-2-yl]pyridine-3-sulfonamide] | 204 to 206 | < 500 |
| C[C@H](NS(=O)(=O)c1ccc(-c2c(C#N)c3cc(C(F)(F)F)cnc3n2C2CCCCC2)cc1)C(F)(F)F [Cpd 416, 4-[3-cyano-1-cyclohexyl-5-(trifluoromethyl)-1H-pyrrolo[2,3-b]pyridin-2-yl]-N-[(2S)-1,1,1-trifluoropropan-2-yl]benzenesulfonamide] | 190 to 192 | < 500 |
